{"source": "paper PMC11089511", "about": "(Journal of Medicinal Chemistry, 2024)", "key": {"[1]": {"target": "wild-type TTR in human plasma (Homo sapiens, UniProt P02766)", "assay": "Ex vivo competitive binding assay using a fluorogenic probe in human plasma", "settings": "for binding to TTR in human plasma (probe fluorescence intensity), in words: 6 h of incubation, Figure 3 / Figures S2–S4"}, "[2]": {"settings": "cited from earlier work"}, "[3]": {"settings": "cited from earlier work", "remark": "listed apart in the source"}, "[4]": {"settings": "cited from earlier work", "remark": "listed apart in the source"}}}
{"smiles": "CCc1sc2ccccc2c1C(=O)c1cc(I)c(O)c(I)c1", "note": "[Compound 14, (2-Ethylbenzo[b]thien-3-yl)(4-hydroxy-3,5-diiodophenyl)methanone]", "values": [{"measurement": "binding to TTR in human plasma (probe fluorescence intensity), in words", "setting": "[1]", "value": "weaker binding compared to 3"}]}
{"smiles": "O=C(O)c1ccc2nc(-c3cc(Cl)cc(Cl)c3)oc2c1", "note": "[Compound 1, Tafamidis]", "values": [{"measurement": "PAMPA permeability", "setting": "[2]", "value": ">50 ×10^–6 cm/s"}, {"measurement": "aqueous solubility pH 6.8", "setting": "[3]", "value": ">100", "unit": "μM"}, {"measurement": "hepatic microsome stability in rats", "setting": "[4]", "value": 38.7, "unit": "mL/min/kg"}]}
{"smiles": "CCc1oc2c(Cl)c(Cl)ccc2c1C(=O)c1cc(I)c(O)c(I)c1", "note": "[Compound 19, (6,7-Dichloro-2-ethylbenzofuran-3-yl)(4-hydroxy-3,5-diiodophenyl)methanone]", "values": [{"measurement": "binding to TTR in human plasma (probe fluorescence intensity), in words", "setting": "[1]", "value": "remarkably reduced compared to that of 7"}]}
{"smiles": "CCc1oc2ccccc2c1C(=O)c1cc(I)c(O)c(I)c1", "note": "[Compound 3, benziodarone]", "values": [{"measurement": "fluorescence intensity of the probe relative to the control (DMSO)", "setting": "[1]; compound 20 μM, human plasma with 5 μM TTR, Figure 2", "value": "approximately 30%"}]}
{"smiles": "CCc1oc2ccc(Cl)c(Cl)c2c1C(=O)c1cc(I)c(O)c(I)c1", "note": "[Compound 18, (4,5-Dichloro-2-ethylbenzofuran-3-yl)(4-hydroxy-3,5-diiodophenyl)methanone]", "values": [{"measurement": "binding to TTR in human plasma (probe fluorescence intensity), in words", "setting": "[1]", "value": "remarkably reduced compared to that of 7"}]}
